Source: ChEMBL document CHEMBL2157951, “Polysulfated xanthones: multipathway development of a new generation of dual anticoagulant/antiplatelet agents” (J Med Chem, 2011)
Active and inactive are the calls of the source. The rule behind the calls is not given here.

Assays:
[1] = system: Plasma; assay: Anticoagulant activity in human plasma assessed as effect on prothrombin time at 5 mM by coagulometer analysis relative to untreated control; format: functional
[2] = system: Plasma; assay: Anticoagulant activity in human plasma assessed as effect on activated partial thromboplastin time at 5 mM by coagulometer analysis relative to untreated control; format: functional
[3] = system: Plasma; assay: Anticoagulant activity in human plasma assessed as effect on thrombin time at 5 x 10^-3 M by coagulometer analysis; format: functional, cell-free
[4] = system: Plasma; assay: Anticoagulant activity in human plasma assessed as concentration required to double the prothrombin time by coagulometer analysis; format: functional
[5] = system: Plasma; assay: Anticoagulant activity in human plasma assessed as concentration required to double the activated partial thromboplastin time by coagulometer analysis; format: functional
[6] = Stability in RPMI medium at 37 degC assessed as compound degradation incubated for 24 hrs; format: physicochemical
[7] = target: Prothrombin (Homo sapiens) (UniProt P00734); assay: Inhibition of human thrombin assessed as chromozym TH substrate hydrolysis at 1.9 x 10^-9 by spectrophotometric analysis
[8] = system: Blood; assay: Anticoagulant activity in human whole blood assessed as acceleration/kinetics of fibrin buildup and cross-linking at 3.12 x 10^-4 M by thromboelastography analysis in presence of intrinsic activator (reference value: 77 degree); format: functional
[9] = system: Blood; assay: Anticoagulant activity in human whole blood assessed as time from beginning of clot formation until the amplitude of thromboelastogram reaches 20 mm at 3.12 x 10^-4 M by thromboelastography analysis in presence of intrinsic activator (reference value: 82 sec); format: functional
[10] = system: Plasma; assay: Anticoagulant activity in human plasma assessed as effect on prothrombin time by coagulometer analysis; format: functional, cell-free
[11] = target: Coagulation factor X/antithrombin III (Homo sapiens) (UniProt P01008+P00742); assay: Inhibition of human factor 10a/antithrombin 3 assessed as CBS 31.39 substrate hydrolysis at 1 x 10^-3 M by spectrophotometric analysis; format: protein-complex assay
[12] = target: T1, Coagulation factor X (Homo sapiens, UniProt P00742); assay: Inhibition of human factor 10a assessed as CBS 31.39 substrate hydrolysis at 1 x 10^-3 M by spectrophotometric analysis
[13] = system: Plasma; assay: Reduction of prothrombin level in citreated human plasma by measuring prothrombin clotting time after mixing with factor 2 deficient plasma
[14] = system: Blood; assay: Anticoagulant activity in human whole blood assessed as period of time from initiation of the test to the initial fibrin formation at 3.12 x 10^-4 M by thromboelastography analysis in presence of intrinsic activator (reference value: 188 sec); format: functional
[15] = target: Vitamin K-dependent protein C (Homo sapiens) (UniProt P04070); assay: Inhibition of activated protein C in citreated human plasma using CBS 42.46 as substrate at 2.50 x 10^-4 M by chromogenic assay
[16] = target: Vitamin K-dependent protein C (Homo sapiens) (UniProt P04070); assay: Inhibition of activated protein C in citreated human plasma using CBS 42.46 as substrate at 2 x 10^-3 M by chromogenic assay
[17] = system: Plasma; assay: Anticoagulant activity in human plasma assessed as effect on activated partial thromboplastin time by coagulometer analysis; format: functional, cell-free
[18] = system: Blood; assay: Anticoagulant activity in human whole blood assessed as amplitude of the clot at 10 mins at 3.12 x 10^-4 M by thromboelastography analysis in presence of intrinsic activator (reference value: 57 mm); format: functional
[19] = system: Plasma; assay: Anticoagulant activity in human plasma assessed as effect on thrombin time by coagulometer analysis; format: functional, cell-free
[20] = target: T1, Coagulation factor X; assay: Inhibition of human factor 10a assessed as CBS 31.39 substrate hydrolysis by spectrophotometric analysis
[21] = system: Plasma; assay: Anticoagulant activity in human plasma assessed as concentration required to double the thrombin time by coagulometer analysis; format: functional
[22] = target: Coagulation factor X/antithrombin III (Homo sapiens, UniProt P00742+P01008); assay: Inhibition of human factor 10a/antithrombin 3 assessed as CBS 31.39 substrate hydrolysis by spectrophotometric analysis; format: protein-complex assay
[23] = target: Prothrombin (Homo sapiens) (UniProt P00734); assay: Inhibition of human thrombin assessed as chromozym TH substrate hydrolysis at 1 x 10^-4 to 1 x 10^-3 M by spectrophotometric analysis in presence of antithrombin-3
[24] = Chemical stability of the compound in aqueous solution at 1.00 x 10^-2, 1.00 x 10^-4 and 1.00 x 10^-6 M at 4 degC after 15 days by HPLC analysis; details: buffer, 360 h, 10 mM, 100 µM, 1 µM
[25] = system: Mus musculus; assay: Anticoagulant activity in mouse assessed as increase of activated thrombin time at 300 umol/kg, po; format: functional, organism-based
[26] = Solubility of the compound in water; format: physicochemical; details: buffer
[27] = system: Mus musculus; assay: Hepatotoxicity in mouse assessed as GOT level in plasma at 300 umol/kg, ip after 120 mins (reference value: 108 U/L); format: toxicity, organism-based; details: in vivo, 2 h
[28] = system: Mus musculus; assay: Anticoagulant activity in ip dosed mouse assessed as increase of activated partial thromboplastin time; format: functional, organism-based
[29] = system: Plasma; assay: Metabolic stability in human plasma after 3 hrs by HPLC analysis by HPLC analysis; format: ADME, cell-free
[30] = Chemical stability of the compound in sodium acetate buffer at pH 5 assessed as compound remaining at 1 x 10^-5 M after 120 mins by HPLC analysis; format: physicochemical; details: read-out: Stability
[31] = system: Mus musculus; assay: Anticoagulant activity in mouse assessed as increase of activated prothrombin time at 300 umol/kg, po; format: functional, organism-based
[32] = system: Mus musculus; assay: Anticoagulant activity in mouse assessed as increase of thrombin time at 150 and 300 umol/kg, ip measured after 120 mins; format: functional, organism-based
[33] = system: Mus musculus; assay: Anticoagulant activity in ip dosed mouse assessed as increase of thrombin time; format: functional, organism-based
[34] = Chemical stability of the compound in sodium boric acid at pH 9.1 assessed as compound remaining at 1 x 10^-5 M after 120 mins by HPLC analysis; format: physicochemical; details: sodium boric acid buffer, read-out: Stability
[35] = target: T1, Coagulation factor X; assay: Non-competitive inhibition of human factor 10a using CBS 31.39 as substrate hydrolysis by Michaelis-Menten equation analysis
[36] = Chemical stability of the compound in potassium phosphate buffer at pH 6.7 assessed as compound remaining at 1 x 10^-5 M after 120 mins by HPLC analysis; format: physicochemical; details: read-out: Stability
[37] = Chemical stability of the compound in aqueous solution at 1.00 x 10^-2, 1.00 x 10^-4 and 1.00 x 10^-6 M at -20 degC after 15 days by HPLC analysis; details: buffer, 360 h, 10 mM, 100 µM, 1 µM
[38] = Chemical stability of the compound in HCl buffer at pH 1 assessed as compound remaining at 1 x 10^-5 M after 120 mins by HPLC analysis; format: physicochemical; details: read-out: Stability
[39] = system: Mus musculus; assay: Anticoagulant activity in ip dosed mouse assessed as increase of prothrombin time; format: functional, organism-based
[40] = system: Mus musculus; assay: Anticoagulant activity in mouse assessed as increase of activated partial thromboplastin time at 150 and 300 umol/kg, ip measured after 120 mins; format: functional, organism-based
[41] = Chemical stability of the compound in phosphate buffered saline at pH 7.4 assessed as compound remaining at 1 x 10^-5 M after 120 mins by HPLC analysis; format: physicochemical; details: read-out: Stability
[42] = system: Mus musculus; assay: Hepatotoxicity in mouse assessed as GPT level in plasma at 300 umol/kg, ip after 120 mins (reference value: 40 U/L); format: toxicity, organism-based; details: in vivo, 2 h
[43] = Chemical stability of the compound in aqueous solution at 1.00 x 10^-2, 1.00 x 10^-4 and 1.00 x 10^-6 M at room temperature after 15 days by HPLC analysis; details: buffer, 360 h, 10 mM, 100 µM, 1 µM
[44] = system: Mus musculus; assay: Anticoagulant activity in mouse assessed as increase of activated partial thromboplastin time at 300 umol/kg, po; format: functional, organism-based
[45] = system: Mus musculus; assay: Anticoagulant activity in mouse assessed as increase of prothrombin time at 150 and 300 umol/kg, ip measured after 120 mins; format: functional, organism-based

O=c1c2cc(O)c(O)cc2oc2cc(O)c([C@@H]3O[C@H](CO)[C@@H](O)[C@H](O)[C@H]3O)c(O)c12
Activity [1]: inactive
Activity [2]: inactive
Activity [3]: inactive

O=c1c2ccc(OS(=O)(=O)O)cc2oc2cc(OS(=O)(=O)O)ccc12
2PT [4]: >5 mM
fold change (FC) [1]: 1.1
2aPTT [5]: >5 mM
fold change (FC) [2]: 1.3
Activity [3]: inactive

O=S(=O)(O)Oc1ccc(/C=C/c2cc(O)cc(O)c2)cc1
Stability ([6]; 24 h): Stable

O=c1c2ccc(O[C@@H]3O[C@H](COS(=O)(=O)O)[C@@H](OS(=O)(=O)O)[C@H](OS(=O)(=O)O)[C@H]3OS(=O)(=O)O)cc2oc2cc(O[C@@H]3O[C@H](COS(=O)(=O)O)[C@@H](OS(=O)(=O)O)[C@H](OS(=O)(=O)O)[C@H]3OS(=O)(=O)O)ccc12
2PT [4]: 0.71 mM
inhibition [7]: 37%
Activity [8]: 68 degree
Time [9]: 114 s
Activity [10]: Dose-dependent effect
inhibition [11]: 88.8%
2aPTT [5]: 0.06 mM
inhibition [12]: 66.3%
Activity [13]: Active
Time [14]: 469 s
inhibition [15]: inactive
inhibition [16]: > 50%
Activity [17]: Dose-dependent effect
Activity [18]: 51 mm
Activity [19]: Dose-dependent effect
IC50 [20]: 740 µM
Activity [21]: 0.61 mM
IC50 [22]: 190 µM
inhibition [23]: inactive

O=c1c2ccc(O[C@@H]3O[C@H](CO)[C@@H](O)[C@H](O)[C@H]3O)cc2oc2cc(O[C@@H]3O[C@H](CO)[C@@H](O)[C@H](O)[C@H]3O)ccc12
Activity [1]: inactive
Activity [2]: inactive
Activity [3]: inactive

O=c1c2cc(O)c(O)cc2oc2cc(O)c([C@@H]3O[C@H](COS(=O)(=O)O)[C@@H](OS(=O)(=O)O)[C@H](OS(=O)(=O)O)[C@H]3OS(=O)(=O)O)c(O)c12
Activity [10]: Dose-dependent effect
2aPTT [5]: 0.39 mM
Activity [17]: Dose-dependent effect
Activity [19]: Dose-dependent effect

O=c1c2cc(OS(=O)(=O)O)c(OS(=O)(=O)O)cc2oc2cc(OS(=O)(=O)O)c([C@@H]3O[C@H](COS(=O)(=O)O)[C@@H](OS(=O)(=O)O)[C@H](OS(=O)(=O)O)[C@H]3OS(=O)(=O)O)c(O)c12 [MANGIFERIN HEPTASULFATE]
2PT [4]: 1.6 mM
inhibition [7]: 37%
Activity [8]: 73 degree
Stability [24]: Stable
Time [9]: 86 s
Activity [25]: inactive
solubility [26]: soluble
Activity [27]: 125 U/L
Activity [28]: Dose-dependent effect
Stability [29]: Stable
remaining at 2 h, 10 µM [30]: > 85%
Activity [31]: inactive
Activity [10]: Dose-dependent effect
Activity [32]: Active
inhibition [11]: 41%
2aPTT [5]: 0.21 mM
Activity [33]: Dose-dependent effect
inhibition [12]: 52.1%
remaining at 2 h, 10 µM [34]: > 85%
Activity [13]: Active
inhibition [35]: Active
remaining at 2 h, 10 µM [36]: > 85%
Time [14]: 247 s
inhibition [15]: inactive
Stability [37]: Stable
inhibition [16]: > 50%
Activity [17]: Dose-dependent effect
remaining at 2 h, 10 µM [38]: > 85%
Activity [18]: 50 mm
Activity [19]: Dose-dependent effect
IC50 [20]: 970 µM
Activity [21]: 1.96 mM
Activity [39]: Dose-dependent effect
Activity [40]: Active
remaining at 2 h, 10 µM [41]: > 85%
Activity [42]: 46 U/L
Stability [43]: Stable
inhibition [23]: inactive
Activity [44]: inactive
Activity [45]: Active

Oc1ccc(/C=C/c2cc(O)cc(O)c2)cc1 [RESVERATROL]
degraded at 24 h ([6]; RPMI medium, read-out: Drug degradation): 50%
